This is an account of results in BindingDB's records for doi:10.1016/j.bioorg.2017.03.013 (Birla Institute of Technology, 2017).

The structures appear in SMILES notation. A value given as a limit tells only on which side of the number the result lay.

The test deals with Gag-Pol polyprotein (Human immunodeficiency virus type 1 group M subtype B (isolate HXB2), UniProt P04585). The test can be described thus: HIV-1 RT In-Vitro Assay. The method, then:
The reaction mixture was set with template primer complex, RT enzyme and dNTPs in a lysis buffer with or without inhibitors. The reaction mixture was incubated at 37 °C for 1 h and then transferred to streptavidine-coated microtitre plate (MTP). The biotin-labeled dNTPs that were incorporated in the template due to activity of RT, bound to streptavidine. The unbound dNTPs were washed using wash buffer and anti-DIG-POD was added to the MTP. The DIG-labeled dNTPs incorporated in the template were bound to an anti-DIG-POD antibody. The unbound anti-DIG-POD was washed again with washing buffer and the peroxide substrate (ABST) was added to the MTP. A colored reaction product was produced during the cleavage of the substrate catalyzed by a peroxide enzyme. The absorbance of the sample was determined as an optical density (OD) at 405 nm using a micro titer plate ELISA reader.
`CC1CC(=O)Nc2ccccc2N1C(=O)c1ccccc1Br` (centres undefined) [5-(2-bromobenzoyl)-4-methyl-1,3,4,5-tetrahydro-2H-1,5-benzodiazepin-2-one (A13)] had an IC50 of 92.5 µM.

`CC1CC(=O)Nc2ccccc2N1C(=O)c1ccccc1Cl` (centres undefined) [5-(2-chlorobenzoyl)-4-methyl-1,3,4,5-tetrahydro-2H-1,5-benzodiazepin-2-one (A10)] had an IC50 of 8.62 µM.

In turn, `CC1CC(=O)Nc2ccccc2N1C(=O)c1ccccc1F` (centres undefined) [5-(2-fluorobenzoyl)-4-methyl-1,3,4,5-tetrahydro-2H-1,5-benzodiazepin-2-one (A7)] gave an IC50 of more than 100 µM.

`Cc1ccccc1C(=O)N1c2ccccc2NC(=O)CC1C` (centres undefined) [5-(2-methylbenzoyl)-4-methyl-1,3,4,5-tetrahydro-2H-1,5-benzodiazepin-2-one (A2)] had an IC50 of 14.3 µM.

`CC1CC(=O)Nc2ccccc2N1C(=O)c1cccc(Cl)c1` (centres undefined) [5-(3-chlorobenzoyl)-4-methyl-1,3,4,5-tetrahydro-2H-1,5-benzodiazepin-2-one (A11)] registered an IC50 of 6.87 µM.

For the compound `CC1CC(=O)Nc2ccccc2N1C(=O)c1cccc(F)c1` (centres undefined) [5-(3-fluorobenzoyl)-4-methyl-1,3,4,5-tetrahydro-2H-1,5-benzodiazepin-2-one (A8)], the IC50 is 76.3 µM.

With `COc1cccc(C(=O)N2c3ccccc3NC(=O)CC2C)c1` (centres undefined) [5-(3-methoxybenzoyl)-4-methyl-1,3,4,5-tetrahydro-2H-1,5-benzodiazepin-2-one (A5)], the IC50 turned out to be 87.9 µM. The IC50 values of the last two compounds are within 1.5-fold of each other.

Regarding `Cc1cccc(C(=O)N2c3ccccc3NC(=O)CC2C)c1` (centres undefined) [5-(3-methylbenzoyl)-4-methyl-1,3,4,5-tetrahydro-2H-1,5-benzodiazepin-2-one (A3)], the 50% inhibitory concentration (IC50) is 26.4 µM.

For `CC1CC(=O)Nc2ccccc2N1C(=O)c1ccc(Br)cc1` (centres undefined) [5-(4-bromobenzoyl)-4-methyl-1,3,4,5-tetrahydro-2H-1,5-benzodiazepin-2-one (A14)], the IC50 was 68.7 µM.

As to `CC1CC(=O)Nc2ccccc2N1C(=O)c1ccc(Cl)cc1` (centres undefined) [5-(4-chlorobenzoyl)-4-methyl-1,3,4,5-tetrahydro-2H-1,5-benzodiazepin-2-one (A12)], the IC50 is 38.3 µM.

Regarding `CC1CC(=O)Nc2ccccc2N1C(=O)c1ccc(F)cc1` (centres undefined) [5-(4-fluorobenzoyl)-4-methyl-1,3,4,5-tetrahydro-2H-1,5-benzodiazepin-2-one (A9)], the IC50 was 25 µM.

Take `COc1ccc(C(=O)N2c3ccccc3NC(=O)CC2C)cc1` (centres undefined) [5-(4-methoxybenzoyl)-4-methyl-1,3,4,5-tetrahydro-2H-1,5-benzodiazepin-2-one (A6)]: the IC50 turned out to be 54.6 µM.

Regarding `Cc1ccc(C(=O)N2c3ccccc3NC(=O)CC2C)cc1` (centres undefined) [5-(4-methylbenzoyl)-4-methyl-1,3,4,5-tetrahydro-2H-1,5-benzodiazepin-2-one (A4)], the IC50 is more than 100 µM.

On to `CC1CC(=O)Nc2ccccc2N1C(=O)c1ccccc1` (centres undefined) [5-(benzoyl)-4-methyl-1,3,4,5-tetrahydro-2H-1,5-benzodiazepin-2-one (A1)], for which the IC50 was found to be 17.5 µM.

A word on the IC50: it is the point on the concentration scale where inhibition reaches its midpoint. A high value points to weaker potency.
